Experimental data published in patent publication US8092800B2 (priority 2005, dated 2012).
Marks after values point to notes of the source that are not given here. Square brackets hold non-standard residues; d marks the D form. Peptide text beside a SMILES is read from it. * marks the point of attachment. Sta = CC(C)C[C@H](N)[C@@H](O)CC(=O)O; Isovaleryl = CC(C)CC(=O)*

Columns and labels:
[1] = molecular target: SAP2 (Candida albicans, UniProt P0DJ06)
Procedure: This was based on bovine serum albumin degradation by a native, highly purified SAP2 preparation, essentially as described by Ross et al. Briefly, each assay contained 0.6 ml of 1% (w/v) BSA (Sigma Chem. Co., Detroit, Mich.) in 50 mM sodium citrate pH 3.2 and 0.15 enzyme solution (100 μg/ml). After 30 min at 37° C. 0.4 ml 10% (w/v) trichloroacetic acid was added. The tubes were stored in ice for 30 min and then centrifuged (1600×g) for 10 min. The absorbance of supernatant was read at 280 nm. The control was 1% BSA in enzyme-free citrate buffer. One unit of enzyme catalysed a delta OD of 1 per minute.

[2] = test system: Candida albicans strain SA40; details: cited from earlier work
[3] = test system: C. albicans; assay: Systemic C. albicans infection in Balb/c mice, PEGylated dAbs; format: in vivo, Candida albicans; details: 1 mg/kg at 2 h, 6 h and 24 h post infection
Procedure: Briefly, mice were chronically infected with C. albicans by injecting 1×10^6 cells per mouse via the lateral tail vein (in 0.2 ml saline). Anti-SAP2 or anti-MP65 dAbs were administered as previously indicated. Survival rates compared with control animals were measured.
PEGylated versions of both monomer and dimer constructs were assayed for efficacy in controlling a systemic C. albicans infection in Balb/c mice, using a protocol similar to the murine systemic model described above. One mg/kg of PEGylated dAb protein or fluconazole was administered at 2 h, 6 h and 24 h post infection to groups of 8 mice.

[4] = test system: Candida albicans strain SA40; assay: Rat vaginal candidiasis model, strain SA40; format: in vivo; details: rats, pre-treated 30 min before intravaginal challenge with SA40
Procedure: The selected dAbs as described above were assayed for their capacity to accelerate fungus clearance from the rat vaginal cavity challenged by a virulent vaginopathic Candida strain. The controls were the use of an irrelevant dAb, and an anti-enolase antibody as negative ones and the antimycotic fluconazole and pepstatin A (the prototypal Sap inhibitor) as positive ones.

[5] = test system: Candida albicans; assay: Adherence of Candida to plastic; format: cell-based; details: anti-MP65 dAbs
Procedure: The fungal cells were grown at 28° C. on YPD agar slants (2.0% wt/vol glucose, 1.0% wt/vol yeast extract, 2.0 wt/vol Bacto peptone, (Difco, Detroit, Mich.). Single suspensions of each organism were prepared by a modification of the procedure of Rotronsen (Rotronsen, D., et al. 1986. Rev Infect Dis.; 8:73-85). Briefly, cells were grown 24 h at 28° C. on a rotating drum in YBD broth pH5.0 (0.2% wt/vol yeast extract, 2.0% wt/vol […] and 2.0% wt/vol dextrose, (Difco, Detroit, Mich.). After harvesting by centrifugation, the C. albicans cells were washed three times in physiological solution (0.85% NaCl). Blastospores were counted with Thoma camera and adjusted to desired concentration (10^8 cells/ml) in Hank's Balanced Salt Solution with calcium and magnesium (Hyclone, Logan, Utah).
For adherence to the plastic, the fungal cells, grown as above, were washed twice with water and suspended at 1.5×10^3 cells/ml in modified Lee's or M199 liquid media. 1.5×10^3 cells were incubated for 3 hrs at 37° C. in 6-well polystyrene plates (Corning Incorporated, Corning, N.Y.,). After extensive washing, 1 ml of Sabouraud dextrose agar was poured in each well and allowed to solidify. After incubation at 37° C. for 24 hrs, colonies were counted and the results expressed as percentage of the inoculum. […]

Chain of SAP2 (P0DJ06 57-398): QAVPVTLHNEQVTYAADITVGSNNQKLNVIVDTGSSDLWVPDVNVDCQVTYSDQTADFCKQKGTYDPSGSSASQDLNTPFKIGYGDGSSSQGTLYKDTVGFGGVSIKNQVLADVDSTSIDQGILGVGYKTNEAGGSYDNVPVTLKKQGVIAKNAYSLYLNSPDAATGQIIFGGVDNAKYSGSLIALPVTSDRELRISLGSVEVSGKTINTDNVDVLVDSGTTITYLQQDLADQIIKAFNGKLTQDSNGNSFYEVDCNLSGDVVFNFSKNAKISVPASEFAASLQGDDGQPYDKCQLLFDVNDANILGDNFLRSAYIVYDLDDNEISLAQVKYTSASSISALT

With `CC(C)CC(=O)N[C@H](C(=O)N[C@H](C(=O)N[C@@H](CC(C)C)[C@@H](O)CC(=O)N[C@@H](C)C(=O)N[C@@H](CC(C)C)[C@@H](O)CC(=O)O)C(C)C)C(C)C` [pepstatin, pepstatin A] (Isovaleryl-VV[Sta]A[Sta]-OH) the “ΔOD/ml/min (BSA degradation by SAP)” value ([1]; citrate buffer + 1% BSA + SAP, acidic conditions, no-inhibitor control 1.0) was 0.36 ΔOD/ml/min and the “% Inhibition” value ([1]; inhibition of BSA degradation by SAP2, compared with pepstatin (100*)) was 100* %.

For `OC(Cn1cncn1)(Cn1cncn1)c1ccc(F)cc1F` [Fluconazole, fluconazole], the susceptibility of strain [2] is given as “fully susceptible”, the “Mean Survival Time” value [3] is given as over 30 days and the Survival [3] is given as 88%.

B1: ADR4-13: Sap2 binding dAb, SEQ ID No 25 (protein, listed as Homo sapiens)
VHH: EVQLLESGGGLVQPGGSLRLSCAASGFSISYKNMAWVRQAPGKGLEWVSAIKAANGSTYYADSVKGRFTISRDNSKNTLYLQMNSLRAEDTAVYYCATGSQKKRTYTFDFWGQGTLVTVSS
modifications: Sap2-binding dAb
With B1 the “day of healing/resolution of infection (<1 CFU/μl of vaginal fluid), preventative” value [4] was 21 days.

B2: ADR3-1: MP65 binding dAb, SEQ ID No 5 (antibody, listed as Homo sapiens, V domains shown)
VH: EVQLLESGGGLVQPGGSLRLSCAASGFTFPDYSMTWVRQAPGKGLEWVSLISNSGKTTMYADSVKGRFTISRDNSKNTLYLQMNSLRAEDTAVYYCAKWVNRILQEFDYWGQGTLVTVSS
modifications: MP65-binding dAb
For B2, the “capacity to inhibit adherence to plastic” value [5] was “capacity to inhibit adherence to plastic”.

B3: ADR4-6: Sap2 binding dAb, SEQ ID No 18 (protein, listed as Homo sapiens)
VHH: EVQLLESGGGLVQPGGSLRLSCAASGFRVSNYDLTWVRQAPGKGLEWVSTISATNGSTYYADSVKGRFTISRDNSKNTLYLQMNSLRAEDTAVYYCAAVTWWLLRHNDNLGFWGQGTLVTVSS
modifications: Sap2-binding dAb
For B3, the “day of healing/resolution of infection (<1 CFU/μl of vaginal fluid), preventative” value [4] was 21 days.
